Laboratory results as given in patent US8309766B2 (Obschestvo S. Organichennoi Otvetstvennostiyu …, priority 2005, dated 2012).
Like-named read-outs stand apart in the source and are kept apart here.

How the values were obtained:
[1] = tested on: "acetic contortions" in mice; assay: Analgetic activity on the model "acetic contortions"; type: in vivo, white mongrel mice; conditions: dose 10 mg/kg (table title); for inhibition in vivo at 10 mg/kg / response vs control in vivo at 10 mg/kg: Mus musculus, ip, 0.25 h; for inhibition in vivo at 10 mg/kg: read-out: Analgetic effect (%); for response vs control in vivo at 10 mg/kg: read-out: C, % to the control; for C ± m (the number of contortions for 15 minutes): 60 minutes prior to acetic acid
Protocol: (§1) The tests were conducted on males of white mongrel mice weighing 22-24 grams. The specific pain response (“contortions”) were elicited by intraperitoneal administration to mice of 0.75% acetic acid solution. The following signs were taken into consideration: the number of seizure contractions of abdominal muscles accompanied by stretching the hind limbs and sagging the back. Analgetic effect was assessed by decrease in the number of contortions in animals in percent to the control for 15 minutes post administration of acetic acid. The technique of the tests is disclosed in Koster R., Anderson M., de Beer B.//Fed. Proc. 1959. V. 18. P. 412. Compounds under testing were administered intraperitoneally (using a probe) at a dose 10 μg/kg 60 minutes prior to injection of the acid. Diclofenac (10 mg/kg) was used as a reference drug. Analgetic effect was calculated according to the formula: […]
wherein Ck is the number of contortions in the control group,
Co is the number of contortions in the test group.

cyclooxygenase = assay: In vitro effect on [14C]arachidonic acid metabolism in a cell-free homogenate of murine pulmonary tissue; type: biochemical, CBA mice; conditions: compound 10^−4 M; for Prostanoids: b308 reads these as % cyclooxygenase inhibition; for 6-keto-PGF1α / PGF2α: first of only four cells in the row; for TXB2 / PGE2: second of only four cells in the row
Protocol: Studies of arachidonic acid metabolism was carried out on females CBA mice who where fed a standard vivarium fodder. Animals (mice) were sacrificed, lungs were extracted, homogenized in a glass homogenizer manufactured by the firm “Wheaton” (USA) at 4° C. in 10 volumes of 0.05 M Tris-HCl buffer. Aliquots (0.5 ml) of supernatant were incubated in 0.5 μCi [1-C^14]-arachidonic acid [C^14]-AA, “Amersham”, England; specific activity 50-60 μCi/mmole) at 37° C. for 30 minutes. Non-metabolized [αC^14]-AA and products of metabolism thereof were extracted in 20 volumes of chloroform and methanol mixture (1:1) in extraction efficacy not less than 90% assessed using [C^14]-PGF2α. [C^14]-AA and metabolites thereof were separated and identified using TLC (the plates Kieselgel 60 of the “Merck” firm, Germany) using as an organic phase, the system of solvents (ethylacetate, isooctane, acetic acid, water—110:50:20:100) and labeled standards. Densitometry of autoradiochromograms obtained on the X-ray film X-Omat AR (“Kodak”, USA) and HS 11 (“ORWO”, Germany), was performed on the densiscan KS 3 (“Kipp and Zonnen”, Holland). Quantitative analysis of individual eicosanoids was carried out using radiometry of fractions obtained by high-performance liquid chromatography (the HPLC-system of the “Gilson” form, France; the column ZORBAX C8 of the “Du Pont” firm, USA) and by elution of spots on TLC-plates. The tested compounds were administered at concentration 10^−4 M.

"hot plate" test in mice = assay: Analgetic activity on the model "hot plate"; type: in vivo, white mongrel mice; conditions: for response vs control in vivo at 10 mg/kg / change in vivo at 10 mg/kg: Mus musculus; for response vs control in vivo at 10 mg/kg: read-out: Latent time of NT (%); for change in vivo at 10 mg/kg: read-out: Analgesia (%)
Protocol: The tests were conducted on males of white mongrel mice weighing 22-24 grams. The animals were individually placed on a hot plate (manufactured by the firm “Ugo Basile”), a temperature of which remained constant and was equal to 55° C. The following first manifestations of pain reaction were recorded: licking paws, jumping up prior to administration of a substance (background parameters) and 0.5, 1, 2, 3 and 4 hours post administration of a substance. Substances were administered […] (using a probe). A weighed amount of a substance was thoroughly mixed in 0.1 ml Tween 80 until a solution was obtained, then normal saline was added up to a volume of 0.5 ml. Average latent time of nociception threshold (NT) was calculated in every group. The results obtained were expressed in percent of the background values. Analgetic effect (in %) was calculated according to the formula: A−100%=X, wherein A is a background parameter; X is analgetic effect (in %)
A is (time 0.5 to 4 hours post administration×100%): background time
As reference drugs, Analgin (150 mg/kg), Paracetamol (200 mg/kg), Ketorol (10 mg/kg), were used.

[2] = tested on: "acetic contortions" in mice; assay: Effect on analgetic action of Tramal and Analgin on the model "acetic contortions"; type: in vivo, white mongrel mice; conditions: Analgin 50 mg/kg alone
Protocol: as §1
The studies were carried out in accordance with the technique presented in Example 18.

[3] = 10 mg/kg, 60 minutes post administration
[4] = 10 mg/kg, 120 minutes post administration

SMILES: O=C(Cc1ccc(O)cc1)NCCc1ccccc1
- inhibition in vivo at 10 mg/kg [1]: 56.5%
- response vs control in vivo at 10 mg/kg [1]: 43.5%
- C ± m (the number of contortions for 15 minutes) [1]: 16.0 ± 4.5
- Prostanoids (cyclooxygenase; 37° C., 30 minutes): −40
- AA (arachidonic acid) (cyclooxygenase; 37° C., 30 minutes, change): +40
- 6-keto-PGF1α / PGF2α (cyclooxygenase): −45
- TXB2 / PGE2 (cyclooxygenase): −33
- latent time of nociception threshold, M ± m ("hot plate" test in mice; [3]): 8.5 ± 0.27 s
- latent time of nociception threshold, M ± m ("hot plate" test in mice; [4]): 6.5 ± 1.16 s
- response vs control in vivo at 10 mg/kg ("hot plate" test in mice; 1 h, 10 mg/kg, 60 minutes, percent of background): 160%
- change in vivo at 10 mg/kg ("hot plate" test in mice; 1 h, 10 mg/kg, 60 minutes): 59.6%
- response vs control in vivo at 10 mg/kg ("hot plate" test in mice; 2 h, 10 mg/kg, 120 minutes, percent of background): 123%
- change in vivo at 10 mg/kg ("hot plate" test in mice; 2 h, 10 mg/kg, 120 minutes): 23.3%

SMILES: Cc1c(N(C)CS(=O)(=O)[O-])c(=O)n(-c2ccccc2)n1C.[Na+] [Analgin, reference compound]
- Analgetic effect, % [2]: 37.5%
- Number of contortions for 15 minutes, M ± m [2]: 20.7 ± 2.3
- Analgesia (%) ("hot plate" test in mice; Analgin 150 mg/kg, 30 minutes): 53.4%
- Latent time of NT (%) ("hot plate" test in mice; Analgin 150 mg/kg, 30 minutes): 153.4%
- latent time of nociception threshold, M ± m ("hot plate" test in mice; Analgin 150 mg/kg, 30 minutes): 7.44 ± 1.22 s
- Analgesia (%) ("hot plate" test in mice; Analgin 150 mg/kg, 60 minutes): 50.3%
- Latent time of NT (%) ("hot plate" test in mice; Analgin 150 mg/kg, 60 minutes): 150.3%
- latent time of nociception threshold, M ± m ("hot plate" test in mice; Analgin 150 mg/kg, 60 minutes): 7.29 ± 0.71 s
- Analgesia (%) ("hot plate" test in mice; Analgin 150 mg/kg, 120 minutes): 28.9%
- Latent time of NT (%) ("hot plate" test in mice; Analgin 150 mg/kg, 120 minutes): 128.9%
- latent time of nociception threshold, M ± m ("hot plate" test in mice; Analgin 150 mg/kg, 120 minutes): 6.25 ± 0.75 s
- Analgesia (%) ("hot plate" test in mice; Analgin 150 mg/kg, 240 minutes): 10.3%
- Latent time of NT (%) ("hot plate" test in mice; Analgin 150 mg/kg, 240 minutes): 110.3%
- latent time of nociception threshold, M ± m ("hot plate" test in mice; Analgin 150 mg/kg, 240 minutes): 5.35 ± 0.38 s

SMILES: O=C(CCc1ccc(O)cc1)NCCc1ccc(O)cc1 [Compound X, 3-(p-hydroxyphenyl)-propionyltyramine]
- inhibition in vivo at 10 mg/kg [1]: 54%
- response vs control in vivo at 10 mg/kg [1]: 46%
- C ± m (the number of contortions for 15 minutes) [1]: 11.0 ± 2.4
- Prostanoids (cyclooxygenase; 37° C., 30 minutes): −22
- 6-keto-PGF1α (cyclooxygenase; 37° C., 30 minutes, change): −9
- AA (arachidonic acid) (cyclooxygenase; 37° C., 30 minutes, change): +27
- PGE2 (cyclooxygenase; 37° C., 30 minutes, change): −38
- PGF2α (cyclooxygenase; 37° C., 30 minutes, change): −15
- TXB2 (cyclooxygenase; 37° C., 30 minutes, change): −42
- Analgesia (%) ("hot plate" test in mice; 10 mg/kg, 30 minutes): 75.3%
- latent time of nociception threshold, M ± m ("hot plate" test in mice; 10 mg/kg, 30 minutes post administration): 7.54 ± 0.78 s
- Latent time of NT (%) ("hot plate" test in mice; 10 mg/kg, 30 minutes, percent of background): 175.3%
- Analgesia (%) ("hot plate" test in mice; 10 mg/kg, 60 minutes): 33.8%
- latent time of nociception threshold, M ± m ("hot plate" test in mice; [3]): 5.75 ± 0.83 s
- Latent time of NT (%) ("hot plate" test in mice; 10 mg/kg, 60 minutes, percent of background): 133.7%
- Analgesia (%) ("hot plate" test in mice; 10 mg/kg, 120 minutes): 97.7%
- latent time of nociception threshold, M ± m ("hot plate" test in mice; [4]): 8.50 ± 1.03 s
- Latent time of NT (%) ("hot plate" test in mice; 10 mg/kg, 120 minutes, percent of background): 197.7%
- Analgesia (%) ("hot plate" test in mice; 10 mg/kg, 240 minutes): 100.6%
- latent time of nociception threshold, M ± m ("hot plate" test in mice; 10 mg/kg, 240 minutes post administration): 8.84 ± 0.925 s
- Latent time of NT (%) ("hot plate" test in mice; 10 mg/kg, 240 minutes, percent of background): 200.6%

SMILES: O=C(CCc1ccccc1)NCCc1ccc(O)cc1 [Compound XII, 3-phenylpropionyltyramine]
- inhibition in vivo at 10 mg/kg [1]: 41.4%
- response vs control in vivo at 10 mg/kg [1]: 58.6%
- C ± m (the number of contortions for 15 minutes) [1]: 20.1 ± 2.1
- Prostanoids (cyclooxygenase; 37° C., 30 minutes): −44
- AA (arachidonic acid) (cyclooxygenase; 37° C., 30 minutes, change): +42
- 6-keto-PGF1α / PGF2α (cyclooxygenase): −42
- TXB2 / PGE2 (cyclooxygenase): −47
